Measurements as given in the METLIN SMRT retention time set (Domingo-Almenara et al. 2019).

Experiment: gradient 5% acetonitrile 3 min, to 50% in 2 min, to 85% in 15 min, held 3 min, 100 µL/min
Conditions: column: Zorbax Extend-C18 2.1 x 50 mm; eluents: water / acetonitrile, 0.1% formic acid
Procedure, shortened: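 Data were gathered over 3 months by HPLC coupled to a quadrupole time-of-flight mass spectrometer, operated in positive and negative ionization mode. Mixtures of ~100 pure standards ran on a Zorbax Extend-C18 column (2.1 × 50 mm, 1.8 μm) at 100 μL/min, with water and acetonitrile each containing 0.1% formic acid and dead and dwell volumes of 40 μL and 900 μL. Retention time was read from adduct peaks picked by computer and checked manually.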

| SMILES | RP-LC retention time [s] |
| --- | --- |
| Cc1ccc(NS(=O)(=O)c2cn(C)c3ncccc23)cc1 | 774 |
| COC(=O)C(C)Oc1cc(O)c2c(=O)cc(-c3ccccc3)oc2c1 (stereo not given) | 1060 |
| Cc1cccn2cc(-c3ccc(NS(=O)(=O)c4ccc(Cl)cc4)cc3)nc12 | 701 |
| CC(C)NC(=O)CN1C(=O)CC(c2ccc(Br)s2)=Nc2ccccc21 | 929 |
| COc1ccc(NC(=O)C(=O)c2cccn2C)c(OC)c1 | 976 |
| CCn1cc(S(=O)(=O)N2C[C@@H](C(N)=O)[C@H](c3n[nH]c(C)n3)C2)cn1 | 576 |
| CC(NC(=O)Cc1ccccc1F)C(=O)Nc1nc2ccccc2[nH]1 (stereo not given) | 638 |
| COCC(=O)Nc1nc(-c2ccc3c(c2)NC(=O)C(C)O3)c(C)s1 (stereo not given) | 720 |
| Cc1cccc(C)c1-n1ccn(Cc2nc(-c3ccccn3)no2)c(=O)c1=O | 695 |
| CCCn1c(C)cnc1C1CN(S(=O)(=O)c2cccc(Cl)c2)C1 | 669 |
| CCc1noc(-c2ccnc(-n3cnc(C(=O)NCc4ccccc4)c3)c2)n1 | 866 |
| Cc1cc(OC(C)C(=O)N(Cc2ccco2)C2CCS(=O)(=O)C2)cc(C)c1Cl (stereo not given) | 1010 |
| Cc1nc(NC(=O)CN(C)c2nc3c(C)ccc(C)c3s2)sc1C(=O)N(C)C | 803 |
| COc1nc2ccccc2nc1N1CCCC(C(=O)NC(C)c2ccccc2)C1 (stereo not given) | 1050 |
| CC12CC(NC(=O)N1c1cccc(C(=O)O)c1)c1ccccc1O2 (stereo not given) | 683 |
| CCc1ccc(NC(=O)Nc2cccn3nc(C)nc23)cc1 | 869 |
| Cc1ccn2cc(-c3cccc(S(=O)(=O)N4CC(C)OC(C)C4)c3)nc2c1 (stereo not given) | 647 |
| CCC(C)C(NC(=O)CCc1ccccc1OC)C(=O)Nc1nc2ccccc2[nH]1 (stereo not given) | 783 |

| SMILES | RP-LC retention time [s] |
| --- | --- |
| Cn1c(=O)c2cc(C(=O)NCc3ccc(Cl)cc3)sc2n(C)c1=O | 800 |
| CN(C)CCNC(=O)Cn1ncn2nc(-c3ccccc3)cc2c1=O | 620 |
| COc1ccc(-c2cn3ccn(-c4cc(C)cc(C)c4)c(=O)c3n2)cc1OC | 797 |
| O=C(c1cc2ccccc2oc1=O)N1CCCC(c2nnc(-c3ccccc3)o2)C1 (stereo not given) | 793 |
| Cc1ccc(C)c(C(O)Cn2ccn3nc(-c4cccc(Br)c4)cc3c2=O)c1 (stereo not given) | 1160 |
| COc1ccc(Br)cc1S(=O)(=O)NC(=O)/C=C/c1ccccc1Cc1ccc2ccccc2c1 | 1280 |
| O=C(NCc1ccc(Cl)cc1)c1c(O)c2cccnc2[nH]c1=O | 1000 |
| Cc1nc(-c2noc(-c3cccc(F)c3)n2)cn1CC(=O)Nc1cccc(Cl)c1 | 957 |
| CCCN(C)c1nccn2c(=O)n(CC(=O)Nc3ccc(C)cc3Br)nc12 | 743 |
| CC(C(=O)Nc1nc2ccc(S(C)(=O)=O)cc2s1)n1nnc2ccccc2c1=O (stereo not given) | 706 |
| Cc1ccc(C(=O)NCC2CCCN(S(=O)(=O)c3c(C)cc(C)cc3C)C2)cc1 (stereo not given) | 1060 |
| CCOc1ccc2nc(NCc3ccco3)sc2c1 | 728 |
| O=C(Nc1ccc(F)cc1)Nc1cccc(-c2ccc(N3CCOCC3)nn2)c1 | 697 |
| COc1ccc(-c2noc(Cc3nnc(-c4cc(F)cc(F)c4)o3)n2)cc1OC | 924 |
| C=CCN1C(=O)COc2ccc(-c3nc(NC(=O)c4cc(OC)cc(OC)c4)sc3C)cc21 | 1090 |
| COc1ccccc1C(=O)N1CCC2(CC1)OCCN2S(=O)(=O)c1ccc(F)c(C)c1 | 835 |
| COc1ccc(C)cc1NS(=O)(=O)c1cc(-c2cc(C(F)(F)F)on2)sc1C | 1210 |

Continued, values first:

| RP-LC retention time [s] | SMILES |
| --- | --- |
| 572 | Cc1cc(OCC(=O)NCc2ccco2)nc(N2CCCCCC2)n1 |
| 576 | CCn1c(N2CCN(C(=O)Nc3cccc(C(C)=O)c3)CC2)nc2ccccc21 |
| 590 | Cn1nc(C(=O)N2CCCCC2)c2c1CCN(C(=O)CCC(=O)NCCN1CCCCCC1)C2 |
| 556 | COCCN(Cc1cccs1)C(=O)CN1C[C@H]2C[C@H](C1)[C@H]1CCCC(=O)N1C2 |
| 935 | COc1ccc(Cn2nc3ccc(S(=O)(=O)N4CCCCCC4)cn3c2=O)cc1 |
| 764 | O=C(c1ccc2c(c1)OCO2)N1CCC(n2nc(-c3ccsc3)ccc2=O)CC1 |
| 864 | CCC(C(=O)N1CCN(c2cc(C)n3cnnc3n2)CC1)c1ccccc1 (stereo not given) |
| 972 | O=C(NC1CCCCC1)C1CCCN(c2nc3ccsc3c(=O)n2Cc2ccc(F)cc2)C1 (stereo not given) |
| 718 | Cc1cc(C)cc(NC(=O)N2CCC(OC3CCN(S(C)(=O)=O)CC3)CC2)c1 |
| 704 | O=C(c1ccco1)N1CCN(c2ccc3cc(S(=O)(=O)N4CCCC4)ccc3n2)CC1 |
| 706 | CC(=O)OC1CCN(C(=O)c2cccc(C#N)c2)CC1 |
| 888 | CCOC(=O)CN1N=C(C(=O)N2CCC(C)CC2)S(=O)(=O)c2ccccc21 |
| 598 | O=C(Nc1ccc(S(=O)(=O)N2CCCCC2)cc1)c1cc(-c2ccccc2)on1 |
| 746 | CCCCNC(=O)C1CCCN(c2nnc(C)c3c(C)n(-c4ccc(Cl)cc4)nc23)C1 (stereo not given) |
| 558 | CC(=O)N1CCc2c(c(CNC(=O)c3cncn3C)nn2C)C1 |
| 663 | O=C(NCC1CCCO1)N1CCCn2nc(-c3cccs3)cc2C1 (stereo not given) |
| 739 | COCCCNC(=O)N1CCCN(C2=NS(=O)(=O)C(c3ccc(C)c(C)c3)=C2C)CC1 |
| 595 | Cc1cc(N2CCN(C(=O)c3ccc4c(c3)OCO4)CC2)nc2nnc(C)n12 |
| 731 | COc1ccccc1NC(=O)N1CCN(Cc2nc3ccc(Cl)cc3o2)CC1 |
| 817 | Cc1ccc(-n2nc(N3CCN(C(=O)c4ccc(Br)o4)CC3)ccc2=O)cc1 |
| 725 | O=C(NCc1csc(C2CCN(C(=O)c3ccccc3Cl)CC2)n1)C1CCC1 |
| 824 | Cn1cccc1C(=O)C(=O)N1CCN(C(c2ccccc2)c2ccccc2)CC1 |
| 721 | Cn1nc(CN(C(=O)c2ccc(F)cc2)c2ccccc2)c2c1CCN(S(C)(=O)=O)C2 |
| 844 | CC(CCc1ccccc1)NC(=O)c1cc2n(n1)CC(C)(C(=O)NC1CCCC1)N(C)C2=O (stereo not given) |
| 955 | COC(=O)C1=CN(C2CC2)c2cc(N3CCN(C)CC3)c(F)cc2S1(=O)=O |
| 702 | CCCCOc1ccc(C(=O)N2CCN(c3nc4ccncc4n(C)c3=O)CC2)cc1 |
| 767 | O=C(c1nc(-c2ccc(Cl)cc2)n2c1CCCCC2)N1CCN(c2ncccn2)CC1 |
| 636 | COCCn1nc2n(c1=O)CCN(C(=O)c1ccc(Br)o1)CC2 |
| 621 | CCN1CCN(c2cc(C)c3cc(NC(=O)c4ccc([N+](=O)[O-])c(C)c4)ccc3n2)CC1 |
| 577 | CC(C)N1CCN(C(=O)c2nc(N3CCSCC3)c3cnn(C)c3n2)CC1 |
